PubChem BioAssay AID1963972 (Molecular Pharmacology Branch, DTP, NCI, 2024)

System: 945468-187-T-J2-PDC spheroids viability
Assay: Anticancer human tumor 945468-187-T-J2-PDC patient-derived rectal carcinoma cell line growth inhibition [PI3K]
Details: spheroids with HUVEC and MSC; for IC50: curve of first compound; for viability, T/C: stronger effect = lower value
In short: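 Tumor cells were combined with HUVEC and MSCs into spheroids, then dosed with PI3K-inhibitor combinations over half-log ranges capped near clinical Cmax or 10 microM.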

[1] = second compound 0.0316 µM, first compound 0.0316 µM
[2] = second compound 0.0316 µM, first compound 0.1 µM
[3] = second compound 0.1 µM, first compound 0.0316 µM
[4] = second compound 0.1 µM, first compound 0.1 µM
[5] = second compound 0.316 µM, first compound 0.0316 µM
[6] = second compound 0.316 µM, first compound 0.1 µM
[7] = second compound 1 µM, first compound 0.0316 µM
[8] = second compound 1 µM, first compound 0.1 µM
[9] = second compound 3.16 µM, first compound 0.0316 µM
[10] = second compound 3.16 µM, first compound 0.1 µM
[11] = second compound 10 µM, first compound 0.0316 µM
[12] = second compound 10 µM, first compound 0.1 µM
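Also: spheroids exposed to compounds for seven days before reading.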

`CC(C)NCC(C(=O)N1CCN(c2ncnc3c2C(C)CC3O)CC1)c1ccc(Cl)cc1` (centres undefined) + CC(Nc1ncnc2nc[nH]c12)c1cc2cccc(Cl)c2c(=O)n1-c1ccccc1 gave an IC50 (second compound 0.0316 µM) of over 10 µM, an IC50 (second compound 0.1 µM) of over 10 µM and an IC50 (second compound 0.316 µM) of over 10 µM. It also gave an IC50 (second compound 1 µM) of over 10 µM, an IC50 (second compound 3.16 µM) of over 10 µM and an IC50 (second compound 10 µM) of over 10 µM. For the same molecule, the viability, T/C [1] was 88.1%, the viability, T/C [2] was 82% and the viability, T/C (second compound 0.0316 µM, first compound 0.316 µM) was 111%. For the same molecule, the viability, T/C (second compound 0.0316 µM, first compound 1 µM) was 74.2%, the viability, T/C (second compound 0.0316 µM, first compound 3.16 µM) was 116% and the viability, T/C (second compound 0.0316 µM, first compound 10 µM) was 77.2%. For the same molecule, the viability, T/C [3] was 97.1%, the viability, T/C [4] was 93.1% and the viability, T/C (second compound 0.1 µM, first compound 0.316 µM) was 78%. The viability, T/C (second compound 0.1 µM, first compound 1 µM) was 84%, the viability, T/C (second compound 0.1 µM, first compound 3.16 µM) was 89.7% and the viability, T/C (second compound 0.1 µM, first compound 10 µM) was 77.7%. For the same molecule, the viability, T/C [5] was 86.4%, the viability, T/C [6] was 76.6% and the viability, T/C (second compound 0.316 µM, first compound 0.316 µM) was 107%. For the same molecule, the viability, T/C (second compound 0.316 µM, first compound 1 µM) was 97.5%, the viability, T/C (second compound 0.316 µM, first compound 3.16 µM) was 100% and the viability, T/C (second compound 0.316 µM, first compound 10 µM) was 76.9%. It also gave a viability, T/C [7] of 69.1%, a viability, T/C [8] of 97.6% and a viability, T/C (second compound 1 µM, first compound 0.316 µM) of 86.4%. It also gave a viability, T/C (second compound 1 µM, first compound 1 µM) of 106%, a viability, T/C (second compound 1 µM, first compound 3.16 µM) of 92.6% and a viability, T/C (second compound 1 µM, first compound 10 µM) of 67.9%. The viability, T/C [9] was 80.8%, the viability, T/C [10] was 75.3% and the viability, T/C (second compound 3.16 µM, first compound 0.316 µM) was 77%. The viability, T/C (second compound 3.16 µM, first compound 1 µM) was 116%, the viability, T/C (second compound 3.16 µM, first compound 3.16 µM) was 84.7% and the viability, T/C (second compound 3.16 µM, first compound 10 µM) was 76.9%. It also gave a viability, T/C [11] of 93.7%, a viability, T/C [12] of 96.1% and a viability, T/C (second compound 10 µM, first compound 0.316 µM) of 86.2%. For the same molecule, the viability, T/C (second compound 10 µM, first compound 1 µM) was 103%, the viability, T/C (second compound 10 µM, first compound 3.16 µM) was 90.4% and the viability, T/C (second compound 10 µM, first compound 10 µM) was 81%.

`Cn1ncnc1[C@H]1c2n[nH]c(=O)c3cc(F)cc(c23)N[C@@H]1c1ccc(F)cc1` + CC(Nc1ncnc2nc[nH]c12)c1cc2cccc(Cl)c2c(=O)n1-c1ccccc1 showed an IC50 (second compound 0.0316 µM) of over 0.1 µM, an IC50 (second compound 0.1 µM) of over 0.1 µM and an IC50 (second compound 0.316 µM) of over 0.1 µM. For the same molecule, the IC50 (second compound 1 µM) was over 0.1 µM, the IC50 (second compound 3.16 µM) was over 0.1 µM and the IC50 (second compound 10 µM) was over 0.1 µM. It also gave a viability, T/C (second compound 0.0316 µM, first compound 0.000316 µM) of 100%, a viability, T/C (second compound 0.0316 µM, first compound 0.001 µM) of 106% and a viability, T/C (second compound 0.0316 µM, first compound 0.00316 µM) of 85.3%. The viability, T/C (second compound 0.0316 µM, first compound 0.01 µM) was 93.1%, the viability, T/C [1] was 87.3% and the viability, T/C [2] was 89.8%. For the same molecule, the viability, T/C (second compound 0.1 µM, first compound 0.000316 µM) was 89%, the viability, T/C (second compound 0.1 µM, first compound 0.001 µM) was 90.3% and the viability, T/C (second compound 0.1 µM, first compound 0.00316 µM) was 88%. The viability, T/C (second compound 0.1 µM, first compound 0.01 µM) was 88%, the viability, T/C [3] was 103% and the viability, T/C [4] was 109%. It also gave a viability, T/C (second compound 0.316 µM, first compound 0.000316 µM) of 115%, a viability, T/C (second compound 0.316 µM, first compound 0.001 µM) of 102% and a viability, T/C (second compound 0.316 µM, first compound 0.00316 µM) of 130%. The viability, T/C (second compound 0.316 µM, first compound 0.01 µM) was 97.5%, the viability, T/C [5] was 121% and the viability, T/C [6] was 96.8%. The viability, T/C (second compound 1 µM, first compound 0.000316 µM) was 88.8%, the viability, T/C (second compound 1 µM, first compound 0.001 µM) was 100% and the viability, T/C (second compound 1 µM, first compound 0.00316 µM) was 84.7%. It also gave a viability, T/C (second compound 1 µM, first compound 0.01 µM) of 108%, a viability, T/C [7] of 103% and a viability, T/C [8] of 110%. For the same molecule, the viability, T/C (second compound 3.16 µM, first compound 0.000316 µM) was 120%, the viability, T/C (second compound 3.16 µM, first compound 0.001 µM) was 108% and the viability, T/C (second compound 3.16 µM, first compound 0.00316 µM) was 116%. The viability, T/C (second compound 3.16 µM, first compound 0.01 µM) was 128%, the viability, T/C [9] was 99.4% and the viability, T/C [10] was 111%. For the same molecule, the viability, T/C (second compound 10 µM, first compound 0.000316 µM) was 117%, the viability, T/C (second compound 10 µM, first compound 0.001 µM) was 103% and the viability, T/C (second compound 10 µM, first compound 0.00316 µM) was 112%. The viability, T/C (second compound 10 µM, first compound 0.01 µM) was 105%, the viability, T/C [11] was 102% and the viability, T/C [12] was 109%.
